Assay results taken from PMC10907560, “Significant reduction of activity retention in the kidneys via optimized linker sequences in radiohybrid-based minigastrin analogs” (EJNMMI Research, 2024).
Where two headings read alike, the source gives them in different places. Numbered stars: 1 amine (or outer) side, 2 acyl side, 3 side chain; on linkers, the order of the positions; unused ones are H or OH. Square brackets hold non-standard residues; d marks the D form. Peptide text beside a SMILES is read from it. * marks the point of attachment. Benzoyl(4-SiFtBu2) = CC(C)(C)[Si](F)(c1ccc(C(=O)*)cc1)C(C)(C)C; X1 = CC(C)(C)[Si](F)(c1ccc(C[N+](C)(C)CC(=O)*)cc1)C(C)(C)C; DOTA = O=C(O)CN1CCN(CC(=O)O)CCN(CC(=O)*)CCN(CC(=O)O)CC1; PEG12 = NCCOCCOCCOCCOCCOCCOCCOCCOCCOCCOCCOCCOCCC(=O)O; d(γGlu) = O=C(O)[C@@H](CCC(=O)[*:2])N[*:1]; PEG8 = NCCOCCOCCOCCOCCOCCOCCOCCOCCC(=O)O; 1Nal = N[C@@H](Cc1cccc2ccccc12)C(=O)O; PEG5 = NCCOCCOCCOCCOCCOCCC(=O)O; NMeNle = CCCC[C@H](NC)C(=O)O; PEG4 = NCCOCCOCCOCCOCCC(=O)O; Nle = CCCC[C@H](N)C(=O)O; dDap = NC[C@@H](N)C(=O)O

How the values were obtained:
[1] = target: T1, Human serum albumin (HSA) (Homo sapiens, UniProt P02768); assay: Human serum albumin binding via high performance affinity chromatography (HPAC); format: in vitro ADME; conditions: Chiralpak HSA column, n = 1
T1 construct: purchased Daicel, Tokyo, Japan H13H-2433
Description: Human serum albumin (HSA) binding was determined via high performance affinity chromatography (HPAC), according to previously published protocols. Human serum albumin interaction was calculated according to the retention time (n = 1) of our compounds on a Chiralpak HSA column in dependence of nine reference compounds with known HSA interaction.
Human serum albumin binding was determined via high performance affinity chromatography. Therefore, a Chiralpak HSA column (50 × 3 mm, 5 µm, H13H-2433, Daicel, Tokyo, Japan) was used at a constant flow rate of 0.5 ml/min at room temperature. Mobile phase A consisted of a freshly prepared aqueous solution of NH4OAc (pH = 6.9, 50 mM) and mobile phase B of isopropanol. Calibration of the column was performed daily prior to experiments, by determining the retention times of nine reference substances displaying a HSA binding from 13 to 99%. HPLC gradient for all compounds tested was 100% A (0 to 3 min), followed by 80% A (3 to 40 min). All substances tested, were dissolved in a mixture of A/B (0.5 mg/mL, 1:1, v/v). OriginPro 2016G software (Northampton, United States) was used for non-linear regression and data evaluation.

[2] = target: T2, cholecystokinin-2 receptor (CCK-2R) (Rattus norvegicus, UniProt P30553); assay: CCK-2R affinity (apparent IC50), competitive binding on AR42J cells; conditions: natLu-labeled peptide, 3 h, 37 °C, [177Lu]Lu-DOTA-PP-F11N (0.3 pmol) as radiolabeled reference
T2 construct: host or cells: AR42J (rat pancreatic cancer cells)
T2 sequence (P30553 1-452): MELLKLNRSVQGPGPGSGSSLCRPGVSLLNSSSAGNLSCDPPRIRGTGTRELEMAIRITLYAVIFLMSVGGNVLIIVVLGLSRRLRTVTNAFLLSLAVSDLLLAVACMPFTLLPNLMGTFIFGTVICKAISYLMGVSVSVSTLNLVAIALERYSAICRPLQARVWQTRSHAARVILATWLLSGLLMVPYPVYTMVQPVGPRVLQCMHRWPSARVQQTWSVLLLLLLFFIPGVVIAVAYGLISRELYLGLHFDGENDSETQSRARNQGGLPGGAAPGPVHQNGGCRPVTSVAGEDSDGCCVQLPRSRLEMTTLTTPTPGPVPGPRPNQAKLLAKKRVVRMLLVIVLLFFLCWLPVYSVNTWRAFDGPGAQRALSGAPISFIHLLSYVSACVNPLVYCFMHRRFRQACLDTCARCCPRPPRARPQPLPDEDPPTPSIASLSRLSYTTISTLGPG
Description: On the next day, medium was removed, cells were washed with PBS (300 µL) and fresh nutrient medium supplemented with 5% BSA (200 µL) was added. The peptide of interest (25 µL in nutrient medium) in increasing concentrations (10^−10 to 10^−4 M) in triplicate as well as [^177Lu]Lu-DOTA-PP-F11N (25 μL, 0.3 pmol) were added to the cells and the assay was incubated for 3 h at 37 °C. Subsequently, the supernatant was collected, cells were washed with PBS (300 µL) and both fractions were unified. Cell lysis was conducted by addition of NaOH (300 µL, 1 N) and incubation for at least 20 min at room temperature. The supernatant was collected, the respective wells were washed with NaOH (300 µL, 1 N) and both fractions were unified. Radioactivity of all fractions collected was quantified using a γ-counter (PerkinElmer Inc., Waltham, United States). Apparent half-maximal inhibitory concentration (IC50) was calculated via the GraphPad PRISM software (GraphPad Software Inc., La Jolla, United States).
CCK-2R positive rat pancreatic cancer cells AR42J (CLS GmbH, Eppelheim, Germany) were cultivated in monolayers in CELLSTAR® cell culture flask (Greiner Bio-One GmbH, Frickenhausen, Germany) at 37°C in a humidified atmosphere (5% CO2). Therefor, a HERAcell 150i-Incubator (Thermo Fisher Scientific Inc., Waltham, United States) was used. RPMI 1640 medium, supplemented with 5 mM L-Gln 5 mL non-essential amino acids (100×) and 10% FCS, was used for cell nutrition. Detachment of the cells for passaging was conducted with a Dulbecco’s PBS solution supplemented with 0.1% EDTA (v/v). Cell numbers were determined with a Neubauer hemocytometer (Paul Marienfeld, Lauda-Königshofen, Germany). All operations requiring sterile conditions, were accomplished using a MSC-Advantage safety workbench (Thermo Fisher Scientific Inc., Waltham, United States).
Table S1. Affinity, lipophilicity and human serum albumin binding data of the compounds evaluated. Affinity data were determined on AR42J cells (2.0 × 10^5 cells/well) and [^177Lu]Lu-DOTA-PP-F11N (0.3 pmol/well) as radiolabeled reference (3 h, 37 °C, RPMI 1640, 5 mM L-Gln, 5 mL non-essential amino acids (100×), 10% FCS + 5% BSA (v/v)).

[3] = Lipophilicity, n-octanol/PBS distribution coefficient logD7.4; format: physicochemical; conditions: 177Lu-labeled peptide; n-octanol/PBS (1/1), n ≥ 5
Description: For determination of lipophilicity, the respective ^177Lu-Labeled peptide precursor (~ 1 MBq, 10 µL in 0.04 M HCl) was added to a solution of n-octanol/PBS (1/1, v/v, 1 mL) and vigourously mixed for 3 min at room temperature (n ≥ 5). Afterwards both phases were seperated using a Biofuge 15 centrifuge (Heraus Sepatech GmbH, Osterode, Germany) at 9,000 rpm for 5 min. 200 µL aliquots of both layers were collected separately, measured in a γ-counter (Perkin Elmer, Waltham, MA, USA) and the logD7.4 value was obtained.

[4] = test system: AR42J tumor-bearing CB17-SCID mice; conditions: 24 h p.i.; cited from earlier work
[5] = target: T2, cholecystokinin-2 receptor (CCK-2R); conditions: AR42J cells; read-out: apparent IC50; cited from earlier work

T1 sequence (P02768 25-609): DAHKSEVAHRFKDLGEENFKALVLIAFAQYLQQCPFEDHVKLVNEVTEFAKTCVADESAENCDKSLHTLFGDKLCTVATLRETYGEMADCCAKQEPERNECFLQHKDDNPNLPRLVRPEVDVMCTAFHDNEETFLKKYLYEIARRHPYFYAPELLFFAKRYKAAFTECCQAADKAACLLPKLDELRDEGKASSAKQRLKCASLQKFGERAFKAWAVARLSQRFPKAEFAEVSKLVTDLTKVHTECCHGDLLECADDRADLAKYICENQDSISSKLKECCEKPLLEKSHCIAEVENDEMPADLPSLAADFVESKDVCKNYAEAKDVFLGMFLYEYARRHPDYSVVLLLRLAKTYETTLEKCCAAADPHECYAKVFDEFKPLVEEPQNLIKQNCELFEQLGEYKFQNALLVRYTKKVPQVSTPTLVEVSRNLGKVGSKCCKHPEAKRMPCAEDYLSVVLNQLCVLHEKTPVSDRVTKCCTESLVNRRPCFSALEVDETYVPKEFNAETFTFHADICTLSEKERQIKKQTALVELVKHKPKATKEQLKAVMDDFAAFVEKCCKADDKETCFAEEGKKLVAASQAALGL

CCCC[C@@H](C(=O)N[C@@H](CC(=O)O)C(=O)N[C@@H](Cc1cccc2ccccc12)C(N)=O)N(C)C(=O)[C@H](Cc1c[nH]c2ccccc12)NC(=O)CCOCCOCCOCCOCCNC(=O)CC[C@@H](NC(=O)CCOCCOCCOCCOCCOCCOCCOCCOCCOCCOCCOCCOCCNC(=O)CC[C@@H](NC(=O)[C@@H](CNC(=O)c1cc(C(=O)O)cc([Si](F)(C(C)(C)C)C(C)(C)C)c1)NC(=O)CN1CCN(CC(=O)O)CCN(CC(=O)O)CCN(CC(=O)O)CC1)C(=O)O)C(=O)O [[^nat/177Lu]Lu-DOTA-rhCCK-69, DOTA-D-Dap(SiFA-ipa)-D-γ-Glu-(PEG)11-B, metal not drawn]
HSA binding [1]: 84.7%
IC50 ([2]; n = 3, listed as [^natLu]Lu-DOTA-rhCCK-69): 0.0421 ± 0.0017 µM
logD [3]: -2.11 ± 0.09

CCCC[C@@H](C(=O)N[C@@H](CC(=O)O)C(=O)N[C@@H](Cc1cccc2ccccc12)C(N)=O)N(C)C(=O)[C@H](Cc1c[nH]c2ccccc12)NC(=O)CCOCCOCCOCCOCCNC(=O)CC[C@@H](NC(=O)CCOCCOCCOCCOCCOCCOCCOCCOCCNC(=O)CC[C@@H](NC(=O)[C@@H](CNC(=O)c1cc(C(=O)O)cc([Si](F)(C(C)(C)C)C(C)(C)C)c1)NC(=O)CN1CCN(CC(=O)O)CCN(CC(=O)O)CCN(CC(=O)O)CC1)C(=O)O)C(=O)O [[^nat/177Lu]Lu-DOTA-rhCCK-72, DOTA-D-Dap(SiFA-ipa)-D-γ-Glu-(PEG)7-B, metal not drawn]
HSA binding [1]: 89.3%
logD [3]: -2.32 ± 0.03

CCCC[C@@H](C(=O)N[C@@H](CC(=O)O)C(=O)N[C@@H](Cc1cccc2ccccc12)C(N)=O)N(C)C(=O)[C@H](Cc1c[nH]c2ccccc12)NC(=O)CCOCCOCCOCCOCCNC(=O)CC[C@@H](NC(=O)CCOCCOCCOCCOCCOCCOCCOCCOCCNC(=O)[C@@H](CNC(=O)c1ccc([Si](F)(C(C)(C)C)C(C)(C)C)cc1)NC(=O)CN1CCN(CC(=O)O)CCN(CC(=O)O)CCN(CC(=O)O)CC1)C(=O)O [[^nat/177Lu]Lu-DOTA-rhCCK-73, DOTA-D-Dap(p-SiFA)-(PEG)7-B, metal not drawn] ({DOTA}-[dDap](Benzoyl(4-SiFtBu2))[PEG8][d(γGlu)][PEG4]W[NMeNle]D[1Nal]-NH2)
HSA binding [1]: 90.4%
logD [3]: -1.02 ± 0.06

CCCC[C@@H](C(=O)N[C@@H](CC(=O)O)C(=O)N[C@@H](Cc1cccc2ccccc12)C(N)=O)N(C)C(=O)[C@H](Cc1c[nH]c2ccccc12)NC(=O)CCOCCOCCOCCOCCNC(=O)CC[C@@H](NC(=O)CCOCCOCCOCCOCCOCCOCCOCCOCCOCCOCCOCCOCCNC(=O)[C@@H](CNC(=O)c1ccc([Si](F)(C(C)(C)C)C(C)(C)C)cc1)NC(=O)CN1CCN(CC(=O)O)CCN(CC(=O)O)CCN(CC(=O)O)CC1)C(=O)O [[^nat/177Lu]Lu-DOTA-rhCCK-74, DOTA-D-Dap(p-SiFA)-(PEG)11-B, metal not drawn] ({DOTA}-[dDap](Benzoyl(4-SiFtBu2))[PEG12][d(γGlu)][PEG4]W[NMeNle]D[1Nal]-NH2)
HSA binding [1]: 87.2%
logD [3]: -1.19 ± 0.07

CCCC[C@@H](C(=O)N[C@@H](CC(=O)O)C(=O)N[C@@H](Cc1cccc2ccccc12)C(N)=O)N(C)C(=O)[C@H](Cc1c[nH]c2ccccc12)NC(=O)CCOCCOCCOCCOCCNC(=O)CC[C@@H](NC(=O)CCOCCOCCOCCOCCOCCOCCOCCOCCOCCOCCOCCOCCNC(=O)CC[C@@H](NC(=O)[C@@H](CNC(=O)C[N+](C)(C)Cc1ccc([Si](F)(C(C)(C)C)C(C)(C)C)cc1)NC(=O)CN1CCN(CC(=O)O)CCN(CC(=O)O)CCN(CC(=O)O)CC1)C(=O)O)C(=O)O [[^nat/177Lu]Lu-DOTA-rhCCK-75, DOTA-D-Dap(SiFAlin)-D-γ-Glu-(PEG)11-B, metal not drawn]
HSA binding [1]: 90.9%
logD [3]: -1.15 ± 0.05

CCCC[C@@H](C(=O)N[C@@H](CC(=O)O)C(=O)N[C@@H](Cc1cccc2ccccc12)C(N)=O)N(C)C(=O)[C@H](Cc1c[nH]c2ccccc12)NC(=O)CCOCCOCCOCCOCCNC(=O)CC[C@@H](NC(=O)CCOCCOCCOCCOCCOCCOCCOCCOCCOCCOCCOCCOCCNC(=O)CC[C@@H](NC(=O)[C@@H](CNC(=O)c1ccc([Si](F)(C(C)(C)C)C(C)(C)C)cc1)NC(=O)CN1CCN(CC(=O)O)CCN(CC(=O)O)CCN(CC(=O)O)CC1)C(=O)O)C(=O)O [[^nat/177Lu]Lu-DOTA-rhCCK-76, DOTA-D-Dap(p-SiFA)-D-γ-Glu-(PEG)11-B, metal not drawn]
HSA binding [1]: 86.2%
logD [3]: -1.82 ± 0.09

CCCC[C@@H](C(=O)N[C@@H](CC(=O)O)C(=O)N[C@@H](Cc1cccc2ccccc12)C(N)=O)N(C)C(=O)[C@H](Cc1c[nH]c2ccccc12)NC(=O)CCOCCOCCOCCOCCNC(=O)CC[C@@H](NC(=O)CCOCCOCCOCCOCCOCCNC(=O)[C@@H](CNC(=O)C[N+](C)(C)Cc1ccc([Si](F)(C(C)(C)C)C(C)(C)C)cc1)NC(=O)CN1CCN(CC(=O)O)CCN(CC(=O)O)CCN(CC(=O)O)CC1)C(=O)O [[^nat/177Lu]Lu-DOTA-rhCCK-90, DOTA-D-Dap(SiFAlin)-(PEG)4-B, metal not drawn] ({DOTA}-[dDap](X1)[PEG5][d(γGlu)][PEG4]W[NMeNle]D[1Nal]-NH2)
HSA binding [1]: 94.5%
IC50 ([2]; n = 3): 0.0099 ± 0.001 µM
logD [3]: -0.76 ± 0.09

(R)-DOTAGA-D-Dap(p-SiFA)-(D-γ-Glu)6-Ala-Tyr-Gly-Trp-Nle-Asp-Phe-NH2 ({(R)‑DOTAGA-dDap(p-SiFA)-d(γGlu)-d(γGlu)-d(γGlu)-d(γGlu)-d(γGlu)-d(γGlu)}-AYGW[Nle]DF-NH2; also: 177Lu complex of DOTAGA) [[^177Lu]Lu-(R)-DOTAGA-rhCCK-16]
activity levels in the tumor [4]: 18.0 ± 0.7 %ID/g
IC50 [5]: 0.0204 ± 0.0027 µM
